# Assay results as given in patent publication US10167276B2, “Compounds and methods for inhibiting JAK” (Dizal (Jiangsu) Pharmaceutical Co., Ltd., priority 2015, dated 2019).
# System: STAT3 phosphorylation in NCI-H1975 cells
# Assay: Cellular pSTAT3 assay in NCI-H1975 cells
# Assay type: cell-based
# Details: Homo sapiens, 2 hours with compound
# Procedure: NCI-H1975 cells were plated onto Costar #3701 96 or 384 well tissue-culture treated plates at 5,000 cells/well in 30 uL medium (RPMI, 10% FBS, supplemented with L-glutamine) and incubated overnight at 37° C. in 5% CO2. Phospho STAT3 signal was quantitated utilizing Cell Signaling Technology #7146B Pathscan […] STAT3 antibody pair kit, following manufacturer's instructions.
# Cells were dosed with compound and incubated at 37° C. in 5% CO2 for 2 hours, after which medium and compound were aspirated and cells lysed with 35 uL cold 1×Cell Signaling Lysis buffer and chilled at 4° C. for 1-2 hours. Lysate was incubated on STAT3 capture plates at 4° C. overnight, washed 3× with Tris-Buffered Saline with 0.05% Tween® 20 (TBST), then […] STAT3 detection antibody was applied for 2 hours. Following washing with TBST (3×), HRP-secondary antibody was applied for 2 hours. After additional washing, signal was detected using TMB and Stop solution and read at 450 nm using Tecan Infinite M100.
row,SMILES,IC50
1,"COc1nn(C)cc1Nc1nccc(-c2c[nH]c3c(NC(=O)[C@@H](C)N4CCN(C)C[C@@H]4C)cccc23)n1 [Example 1, (2R)-2-[(2S)-2,4-dimethylpiperazin-1-yl]-N-(3-{2-[(3-methoxy-1-methyl-1H-pyrazol-4-yl)amino]pyrimidin-4-yl}-1H-indol-7-yl)propanamide]",0.643 µM
2,"COCCN1CCN([C@H](C)C(=O)Nc2cccc3c(-c4nc(Nc5cn(C)nc5OC)ncc4F)c[nH]c23)CC1 [Example 3, (2R)-N-(3-{5-fluoro-[(3-methoxy-1-methyl-1H-pyrazol-4-yl)amino]pyrimidin-4-yl}-1H-indol-7-yl)-2-[4-(2-methoxyethyl)piperazin-1-yl]propanamide]",0.302 µM
3,"COc1nn(C)cc1Nc1ncc(F)c(-c2c[nH]c3c(NC(=O)[C@@H](C)N4CCN(C)C[C@@H]4C)cccc23)n1 [Example 7a, (2R)-2-[(3S)-2,4-dimethylpiperazin-1-yl]-N-(3-{5-fluoro-2-[(3-methoxy-1-methyl-1H-pyrazol-4-yl)amino]pyrimidin-4-yl}-1H-indol-7-yl)propanamide]",0.509 µM
4,"COc1nn(C)cc1Nc1ncc(F)c(-c2c[nH]c3c(NC(=O)[C@H](C)N4CCN(C)C[C@@H]4C)cccc23)n1 [Example 7b, (2S)-2-[(3S)-2,4-dimethylpiperazin-1-yl]-N-(3-{5-fluoro-2-[(3-methoxy-1-methyl-1H-pyrazol-4-yl)amino]pyrimidin-4-yl}-1H-indol-7-yl)propanamide]",> 3 µM
5,"CCOc1nn(C)cc1Nc1ncc(F)c(-c2c[nH]c3c(NC(=O)[C@@H](C)N4CCN(CCOC)CC4)cccc23)n1 [Example 9, (2R)-N-(3-{2-[(3-ethoxy-1-methyl-1H-pyrazol-4-yl)amino]-5-fluoropyrimidin-4-yl}-1H-indol-7-yl)-2-[4-(2-methoxyethyl)piperazin-1-yl]propanamide]",0.594 µM
6,"CCOc1nn(C)cc1Nc1ncc(F)c(-c2c[nH]c3c(NC(=O)[C@@H](C)N4CCN(C)C[C@@H]4C)cccc23)n1 [Example 10a, (2R)-2-[(2S)-2,4-dimethylpiperazin-1-yl]-N-(3-{2-[(3-ethoxy-1-methyl-1H-pyrazol-4-yl)amino]-5-fluoropyrimidin-4-yl}-1H-indol-7-yl)propanamide]",0.531 µM
7,"CCOc1nn(C)cc1Nc1ncc(F)c(-c2c[nH]c3c(NC(=O)[C@H](C)N4CCN(C)C[C@@H]4C)cccc23)n1 [Example 10b, (2S)-2-[(2S)-2,4-dimethylpiperazin-1-yl]-N-(3-{2-[(3-ethoxy-1-methyl-1H-pyrazol-4-yl)amino]-5-fluoropyrimidin-4-yl}-1H-indol-7-yl)propanamide]",> 3 µM
8,"CCOc1nn(C)cc1Nc1ncc(F)c(-c2c[nH]c3c(NC(=O)[C@H](C)N4CCN(C)[C@@H](C)C4)cccc23)n1 [Example 11b, (2S)-2-[(3S)-3,4-dimethylpiperazin-1-yl]-N-(3-{2-[(3-ethoxy-1-methyl-1H-pyrazol-4-yl)amino]-5-fluoropyrimidin-4-yl}-1H-indol-7-yl)propanamide]",2.28 µM
9,"CCOc1nn(C)cc1Nc1ncc(F)c(-c2c[nH]c3c(NC(=O)[C@@H](C)N4CCN(C)C[C@H]4C)cccc23)n1 [Example 12, (2R)-2-[(2R)-2,4-dimethylpiperazin-1-yl]-N-(3-{2-[(3-ethoxy-1-methyl-1H-pyrazol-4-yl)amino]-5-fluoropyrimidin-4-yl}-1H-indol-7-yl)propanamide]",0.246 µM
10,"COc1nn(C)cc1Nc1ncc(C)c(-c2c[nH]c3c(NC(=O)[C@@H](C)N4CCN(C)C[C@@H]4C)cccc23)n1 [Example 19, (2R)-2-[(2S)-2,4-dimethylpiperazin-1-yl]-N-(3-{2-[(3-methoxy-1-methyl-1H-pyrazol-4-yl)amino]-5-methylpyrimidin-4-yl}-1H-indol-7-yl)propanamide]",0.47 µM
11,"CCOc1nn(C)cc1Nc1ncc(C)c(-c2c[nH]c3c(NC(=O)[C@@H](C)N4CCN(CCOC)CC4)cccc23)n1 [Example 21, (2R)-N-(3-{2-[(3-ethoxy-1-methyl-1H-pyrazol-4-yl)amino]-5-methylpyrimidin-4-yl}-1H-indol-7-yl)-2-[4-(2-methoxyethyl)piperazin-1-yl]propanamide]",0.703 µM
12,"CCOc1nn(C)cc1Nc1ncc(C)c(-c2c[nH]c3c(NC(=O)[C@@H](C)N4CCN(C)C[C@@H]4C)cccc23)n1 [Example 22, (2R)-2-[(2S)-2,4-dimethylpiperazin-1-yl]-N-(3-{2-[(3-ethoxy-1-methyl-1H-pyrazol-4-yl)amino]-5-methylpyrimidin-4-yl}-1H-indol-7-yl)propanamide]",0.55 µM

# Now those with a lower IC50, led by results:
row,IC50,SMILES
1,0.227 µM,"COc1nn(C)cc1Nc1ncc(F)c(-c2c[nH]c3c(NC(=O)[C@@H](C)N4CCN(C)[C@H](C)C4)cccc23)n1 [Example 2, (2R)-2-[(3R)-3,4-dimethylpiperazin-1-yl]-N-(3-{5-fluoro-2-[(3-methoxy-1-methyl-1H-pyrazol-4-yl)amino]pyrimidin-4-yl}-1H-indol-7-yl)propanamide]"
2,0.0986 µM,"CCN1CCN([C@H](C)C(=O)Nc2cccc3c(-c4nc(Nc5cn(C)nc5OC)ncc4F)c[nH]c23)CC1 [Example 4, (2R)-2-(4-ethylpiperazin-1-yl)-N-(3-{5-fluoro-2-[(3-methoxy-1-methyl-1H-pyrazol-4-yl)amino]pyrimidin-4-yl}-1H-indol-7-yl)propanamide]"
3,0.0872 µM,"COc1nn(C)cc1Nc1ncc(F)c(-c2c[nH]c3c(NC(=O)[C@@H](C)N4CCN(C)[C@@H](C)C4)cccc23)n1 [Example 5, (2R)-2-[(3S)-3,4-dimethylpiperazin-1-yl]-N-(3-{5-fluoro-2-[(3-methoxy-1-methyl-1H-pyrazol-4-yl)amino]pyrimidin-4-yl}-1H-indol-7-yl)propanamide]"
4,0.111 µM,"COc1nn(C)cc1Nc1ncc(F)c(-c2c[nH]c3c(NC(=O)[C@@H](C)N4CCN(C)C[C@H]4C)cccc23)n1 [Example 6, (2R)-2-[(2R)-2,4-dimethylpiperazin-1-yl]-N-(3-{5-fluoro-2-[(3-methoxy-1-methyl-1H-pyrazol-4-yl)amino]pyrimidin-4-yl}-1H-indol-7-yl)propanamide]"
5,0.191 µM,"CCOc1nn(C)cc1Nc1ncc(F)c(-c2c[nH]c3c(NC(=O)[C@@H](C)N4CCN(CC)CC4)cccc23)n1 [Example 8, (2R)-N-(3-{2[(3-ethoxy-1-methyl-1H-pyrazol-4-yl)amino]-5-fluoropyrimidin-4-yl}-1H-indol-7-yl)-2-(4-ethylpiperazin-1-yl)propanamide]"
6,0.209 µM,"CCOc1nn(C)cc1Nc1ncc(F)c(-c2c[nH]c3c(NC(=O)[C@@H](C)N4CCN(C)[C@@H](C)C4)cccc23)n1 [Example 11a, (2R)-2-[(3S)-3,4-dimethylpiperazin-1-yl]-N-(3-{2-[(3-ethoxy-1-methyl-1H-pyrazol-4-yl)amino]-5-fluoropyrimidin-4-yl}-1H-indol-7-yl)propanamide]"
7,0.222 µM,"CCOc1nn(C)cc1Nc1ncc(F)c(-c2c[nH]c3c(NC(=O)[C@@H](C)N4CCN(C)[C@H](C)C4)cccc23)n1 [Example 13, (2R)-2-[(3R)-3,4-dimethylpiperazin-1-yl]-N-(3-{2-[(3-ethoxy-1-methyl-1H-pyrazol-4-yl)amino]-5-fluoropyrimidin-4-yl}-1H-indol-7-yl)propanamide]"
8,0.0703 µM,"COc1nn(C)cc1Nc1ncc(C)c(-c2c[nH]c3c(NC(=O)[C@@H](C)N4CCN(C)[C@@H](C)C4)cccc23)n1 [Example 14, (2R)-2-[(3S)-3,4-dimethylpiperazin-1-yl]-N-(3-{2-[(3-methoxy-1-methyl-1H-pyrazol-4-yl)amino]-5-methylpyrimidin-4-yl}-1H-indol-7-yl)propanamide]"
9,0.131 µM,"COc1nn(C)cc1Nc1ncc(C)c(-c2c[nH]c3c(NC(=O)[C@@H](C)N4CCN(CCO)CC4)cccc23)n1 [Example 15, (2R)-2-[4-(2-hydroxyethyl)piperazin-1-yl]-N-(3-{2-[(3-methoxy-1-methyl-1H-pyrazol-4-yl)amino]-5-methylpyrimidin-4-yl}-1H-indol-7-yl)propanamide]"
10,0.105 µM,"CCN1CCN([C@H](C)C(=O)Nc2cccc3c(-c4nc(Nc5cn(C)nc5OC)ncc4C)c[nH]c23)CC1 [Example 16, (2R)-2-(4-ethylpiperazin-1-yl)-N-(3-{2-[(3-methoxy-1-methyl-1H-pyrazol-4-yl)amino]-5-methylpyrimidin-4-yl}-1H-indol-7-yl)propanamide]"
11,0.229 µM,"COCCN1CCN([C@H](C)C(=O)Nc2cccc3c(-c4nc(Nc5cn(C)nc5OC)ncc4C)c[nH]c23)CC1 [Example 17, (2R)-2-[4-(2-methoxyethyl)piperazin-1-yl]-N-(3-{2-[(3-methoxy-1-methyl-1H-pyrazol-4-yl)amino]-5-methylpyrimidin-4-yl}-1H-indol-7-yl)propanamide]"
12,0.175 µM,"COc1nn(C)cc1Nc1ncc(C)c(-c2c[nH]c3c(NC(=O)[C@@H](C)N4CCN(C)[C@H](C)C4)cccc23)n1 [Example 18, (2R)-2-[(3R)-3,4-dimethylpiperazin-1-yl]-N-(3-{2-[(3-methoxy-1-methyl-1H-pyrazol-4-yl)amino]-5-methylpyrimidin-4-yl}-1H-indol-7-yl)propanamide]"
13,0.184 µM,"CCOc1nn(C)cc1Nc1ncc(C)c(-c2c[nH]c3c(NC(=O)[C@@H](C)N4CCN(CC)CC4)cccc23)n1 [Example 20, (2R)-N-(3-{2-[(3-ethoxy-1-methyl-1H-pyrazol-4-yl)amino]-5-methylpyrimidin-4-yl}-1H-indol-7-yl)-2-(4-ethylpiperazin-1-yl)propanamide]"
